According to patent US3941842A, “P,P'-Disubstituted α-trichloromethylbenzylanilines” (priority 1972, dated 1976):
Where “and” joins values, the source holds several entries; their conditions need not be identical. Equal entries are not always repeated. Entries after “also recorded” stand apart in the source; their conditions may differ.

Key:
Female housefly = assay: Metabolism of 3H-ethoxyaniline by female RSP housefly; settings: 24 hr after topical 1.0 μg 3H-ethoxyaniline (compound III)
Protocol: (§1) The compounds of the present invention were tested for insecticidal activity by standard methods, and compared with the insecticidal activities of DDT and symmetrical analogs of DDT, such methoxychlor. Toxicological methods for the determination of the topical LD50 values to adult female SNAIDM and RSP houseflies, Musca domestica L. and to Phormia regina, and LC50 values to Culex pipiens quinquefasciatus Say, and Anopheles albimanus Weid mosquitoes were described by Metcalf el al., 44 Bull. World Health Org. 363 (1971). The methods for evaluation of metabolism by mouse liver homogenate and by female RSP housefly and salt-marsh caterpillar larvae Estigmene acrea Drury, were described by Kapoor et al., 18 J. Agr. Food Chem. 1145 (1970). The techniques for model eocsystem evluation were described by Metcalf et al., 5 J. Environ. Sci. Tech. 709 (1971).
(§2) The biodegradability of an insecticide may be measured by administering measured doses of a tritium labeled test insecticide to a subject. Some time later the subject is sacrificed, liquefied, and a sample of the liquefied insect is placed on a thin layer chromotagraphy (tlc) plate. The plate is developed in a suitable solvent and Rf values of the various compounds contained in the sample are measured against known Rf values of previously synthesized theoretical metabolic breakdown products. The amount of each metabolite present may thus be measured by measuring the ^3 H at each separately resolved spot on the tlc plate. A permanent record may be made by exposing film to the plate to form a ratioautograph.

Salt-marsh caterpillar = assay: Metabolism of 3H-ethoxyaniline by salt-marsh caterpillar larvae; settings: 24 hr after feeding 0.5 mg 3H-ethoxyaniline (compound III)
Protocol: as §1, §2

[1] = Model ecosystem: distribution, ecological magnification and Biodegradability Index
Excerpt: After the amounts of the various metabolites have been calculated and a determination is made as to which of the metabolites are to be designated as "polar" and which are to be designated as "non-polar", a Biodegradability Index (amount of polar metabolites/amount of nonpolar metabolites) may be calculated. Remembering that nonpolar compounds, such as DDT are readily soluble in the fatty tissues, but are not readily soluble in water based solutions, and that the cell fluid is essentially a water based solution, the lower the Biodegradability Index, the lower the amount of biodegradability of the compound. The higher the amount of polarity, the greater the likelihood that the polar compound will dissolve in water, a very polar compound, and be eliminated from the cell.
The environmental fate of any new pesticide is a factor of paramount importance in determining how and where it might be used. The behavior of ^3 H-α-trichloromethyl-p-ethoxybenzyl-p-ethoxyaniline has been studied by the model ecosystem technique following application of 5.0 mg. of labeled compound to Sorghum plants. A summary of
metabolites from the organisms in the model ecosystem after 33 days were
identified by cochromatography with standards of known constitution, by
appropriate chromogenic reagents, and by high-resolution mass
spectrometry. The data of Table IV indicate the O-dealkylation of
Food Chem. 1 (1972). Ethoxychlor was found in the snail to 58.6 ppm and in the fish to 0.92 ppm, along with its ethylene and the mono- and bis-phenols formed by O-dealkylation. The ecological magnification (E.M.) of ethoxychlor, defined as the ratio of the parent material in the fish to the concentration in the water, was 1500-fold as compared with an E.M. of only 0.7-fold for the ethoxyaniline.
Comparing the Biodegradability Indices (B.I.=total recovered polar metabolites/total recovered nonpolar metabolites) the values are 0.44 for ethoxychlor and 2.0 for ethoxyaniline.

[2] = system: multifunction oxidase (MFO) enzymes; settings: background; cited from earlier work
[3] = cited from earlier work
Musca domestica Snaidm = assay: Topical LD50 to adult female SNAIDM houseflies; settings: for LD50: Musca domestica, read-out: Topical LD50, Musca domestica Snaidm, Alone; for LD50 / Topical LD50, Musca domestica Snaidm, with pb: topical; for Topical LD50, Musca domestica Snaidm, with pb: SNAIDM strain, synergized with piperonyl butoxide; for SR, Musca domestica Snaidm: synergistic ratio: LD50 alone/LD50 synergized with piperonyl butoxide
Protocol: as §1
(§3) Since piperonyl butoxide serves to block the action of MFO, the synergized LD50 values express the intrinsic toxicity of the compounds. With the detoxifying action of MFO enzymes blocked, the intrinsic toxicity of the compounds can thus be measured.

Musca domestica Rsp = assay: Topical LD50 to adult female RSP houseflies; settings: for LD50: Musca domestica, read-out: Topical LD50, Musca domestica Rsp, Alone; for LD50 / Topical LD50, Musca domestica Rsp, with pb: topical; for Topical LD50, Musca domestica Rsp, with pb: RSP strain, synergized with piperonyl butoxide; for SR, Musca domestica Rsp: synergistic ratio: LD50 alone/LD50 synergized with piperonyl butoxide
Protocol: as §1, §3

Phormia regina = assay: whole plant or invertebrate; settings: for LD50: Phormia regina, read-out: Topical LD50, Phormia regina, Alone; for LD50 / Topical LD50, Phormia regina, with pb: topical; for Topical LD50, Phormia regina, with pb: synergized with piperonyl butoxide; for SR, Phormia regina: synergistic ratio: LD50 alone/LD50 synergized with piperonyl butoxide
Protocol: as §1, with “363 (1971).” left out, “Food Chem. 1145 (1970).” left out, “Tech.” for “Tech. 709 (1971).”
as §3

Culex fatigans larvae = assay: LC50 to Culex fatigans larvae; format: in vivo, Culex pipiens quinquefasciatus Say
Excerpt: (§4) World Health Org. 363 (1971). […] Food Chem. 1145 (1970). […] Sci. Tech. 709 (1971). The results are detailed in Table II. ##SPC1##

[4] = system: Anopheles albimanus larvae; assay: LC50 to Anopheles albimanus larvae; format: in vivo, Anopheles albimanus Weid
Excerpt: as §4

[5] = system: Musca domestica (SNAIDM and RSP strains), Phormia regina, Culex fatigans and Anopheles albimanus; assay: Insecticidal activity over the test insects (Table II, summarised in words); format: in vivo; settings: for insecticidal effectiveness / toxicity (in words): overall, test insects of Table II; for SR values (in words): synergism by piperonyl butoxide
Protocol: as §1, §3

insects = settings: background; cited from earlier work
[6] = 33 days, 5.0 mg 3H-ethoxyaniline to Sorghum
[7] = model ecosystem, Kapoor et al., 20(1) J. Agr. Food Chem. 1 (1972)

Compound	LD50 (Musca domestica Snaidm)	Topical LD50, Musca domestica Snaidm, with pb (Musca domestica Snaidm)	SR, Musca domestica Snaidm (Musca domestica Snaidm)	LD50 (Musca domestica Rsp)	Topical LD50, Musca domestica Rsp, with pb (Musca domestica Rsp)	SR, Musca domestica Rsp (Musca domestica Rsp)	LD50 (Phormia regina)	Topical LD50, Phormia regina, with pb (Phormia regina)	LC50 Culex fatigans larvae (Culex fatigans larvae)	LC50 Anopheles albimanus larvae [4]	insecticidal effectiveness / toxicity (in words) [5]	other results
CCOc1ccc(C(=O)C(Cl)Cl)cc1 [C2 H5 OC6 H4 C(O)CHCl2, p-ethoxydichloroacetophenone]	–	–	–	–	–	–	–	–	–	–	–	Female housefly, percent 3H in Excreta (Female housefly): 9.7%; Female housefly, percent 3H in Homogenate (Female housefly): 10.4%; Salt-marsh caterpillar, percent 3H in Excreta (Salt-marsh caterpillar; excreta): 3.1%; Salt-marsh caterpillar, percent 3H in Homogenate (Salt-marsh caterpillar; homogenate): 8.7%; Concentration of ethoxyaniline equivalents in Gambusia (fish) [1, 6]: 0.28 ppm; Concentration of ethoxyaniline equivalents in Oedogonium (algae) ([1]; Oedogonium (algae), 33 days, 5.0 mg 3H-ethoxyaniline to Sorghum): 0.3 ppm; Concentration of ethoxyaniline equivalents in Physa (snail) [1, 6]: 3.542 ppm
ClC(Cl)=C(c1ccc(Cl)cc1)c1ccc(Cl)cc1 [DDE, 1,1-dichloro-2,2-bis(p-chlorophenyl) ethylene]	–	–	–	–	–	–	–	–	–	–	–	susceptibility to MFO enzymes (in words) [2]: do not function on DDT and its metabolic derivatives DDE and DDD
Oc1ccc(NC(c2ccc(O)cc2)C(Cl)(Cl)Cl)cc1 (stereo not drawn) [HOC6 H4 NHCH(CCl3)C6 H4 OH, α-trichloromethyl-p-hydroxybenzyl-p-hydroxyaniline]	–	–	–	–	–	–	–	–	–	–	–	Female housefly, percent 3H in Excreta (Female housefly): 5.7%; Female housefly, percent 3H in Homogenate (Female housefly): 8.4%; Concentration of ethoxyaniline equivalents in Gambusia (fish) [1, 6]: 0.03 ppm; Concentration of ethoxyaniline equivalents in Physa (snail) [1, 6]: 1.512 ppm
CCOc1ccc(C(c2ccc(OCC)cc2)C(Cl)(Cl)Cl)cc1 [Ethoxychlor, 2,2-bis(p-ethoxyphenyl)-1,1,1-trichloroethane]	–	–	–	–	–	–	–	–	–	–	–	biodegradability (in words) ([1]; model ecosystem comparison): substantially biodegradable; also recorded: substantially more biodegradable than DDT; concentration found in the fish [3, 7]: 0.92 ppm; concentration found in the snail [3, 7]: 58.6 ppm; ecological magnification (E.M.) ([3]; ratio of parent material in fish to concentration in water, Kapoor et al.): 1500 fold; Biodegradability Index (B.I.) ([3]; total recovered polar/total recovered nonpolar metabolites, ethoxychlor evaluated by Kapoor et al.): 0.44
COc1ccc(NC(c2ccc(N(C)C)cc2)C(Cl)(Cl)Cl)cc1 (stereo not drawn) [XXV]	310 mg/kg	16.0 μg per g	19.4	> 500 mg/kg	13.5 μg per g	> 37	> 250 mg/kg	85.0 μg per g	0.70 ppm	1.0 ppm	Toxicity was also substantially decreased	–
COc1ccc(NC(c2ccc(OC)cc2)C(Cl)(Cl)Cl)cc1 (stereo not drawn) [Compound II]	> 500 mg/kg	5.5 μg per g	100 and > 100	500 mg/kg	13.5 μg per g	37 and > 37	118 mg/kg	35.0 μg per g	> 1.0 ppm	0.64 ppm	very low toxicity	synergism in Phormia (in words) (Phormia regina; with piperonyl butoxide): substantially synergized in Phormia
CCCCOc1ccc(C(Nc2ccc(OC)cc2)C(Cl)(Cl)Cl)cc1 (stereo not drawn) [XVIII]	370 mg/kg	12.5 μg per g	30	230 mg/kg	32.0 μg per g	7.2	> 250 mg/kg	67.5 μg per g	0.60 ppm	0.77 ppm	Toxicity was also substantially decreased	–
Cc1ccc(C(c2ccc(C)cc2)C(Cl)(Cl)Cl)cc1 [methylchlor, 1,1,1-trichloro-2,2-bis(p-methylphenyl)ethane]	–	–	–	–	–	–	–	–	–	–	–	insecticidal activity (in words) (insects): considerably less insecticidal activity than DDT towards other species of insects
COc1ccc(NC(c2ccc(C)cc2)C(Cl)(Cl)Cl)cc1 (stereo not drawn) [Compound X]	48 mg/kg	8.5 μg per g	5.6	65 mg/kg	7.5 μg per g	8.7	135 mg/kg	14.0 μg per g	0.54 ppm	0.48 ppm	–	SR, Phormia regina (Phormia regina): 9.6; SR values (in words) [5]: higher SR values
COc1ccc(C(Nc2ccc(C)cc2C)C(Cl)(Cl)Cl)cc1 (stereo not drawn) [XXIV]	95 mg/kg	14.0 μg per g	6.8	140 mg/kg	29.0 μg per g	4.8	97.5 mg/kg	25.0 μg per g	0.28 ppm	0.080 ppm	Toxicity was also substantially decreased	–
COc1ccc(NC(c2ccc(Cl)cc2)C(Cl)(Cl)Cl)cc1 (stereo not drawn) [VI]	39 mg/kg	6.5 μg per g	6.0	49 mg/kg	14.0 μg per g	3.4	128 mg/kg	80 μg per g	0.44 ppm	0.37 ppm	–	SR, Phormia regina (Phormia regina): 1.6; SR values (in words) [5]: higher SR values
Clc1ccc(C(c2ccc(Cl)cc2)C(Cl)Cl)cc1 [DDD, 1,1-dichloro-2,2-bis(p-chlorophenyl)ethane]	–	–	–	–	–	–	–	–	–	–	–	susceptibility to MFO enzymes (in words) [2]: do not function on DDT and its metabolic derivatives DDE and DDD
CCOc1ccc(C(Nc2ccccc2OCC)C(Cl)(Cl)Cl)cc1 (stereo not drawn) [XXI]	> 500 mg/kg	110 μg per g	> 5	> 500 mg/kg	140 μg per g	> 3.5	> 250 mg/kg	> 250 μg per g	> 1.0 ppm	> 1.0 ppm	Toxicity was greatly decreased	–
